# ChEMBL document CHEMBL2417479, “Effects of the methoxy group in the side chain of debromoaplysiatoxin on its tumor-promoting and anti-proliferative activities” (Bioorg Med Chem Lett, 2013)
# What was measured:
# SNB-78 = experiment: Growth inhibition of human SNB-78 cells after 48 hrs by SRB assay; format: functional; settings: SNB-78, 48 h
# OVCAR-5 = experiment: Growth inhibition of human OVCAR5 cells after 48 hrs by SRB assay; format: functional; settings: OVCAR-5, 48 h
# HCT-116 = experiment: Growth inhibition of human HCT116 cells after 48 hrs by SRB assay; format: functional; settings: HCT-116, 48 h
# PC-3 = experiment: Growth inhibition of human PC3 cells after 48 hrs by SRB assay; format: functional; settings: PC-3, 48 h
# SF-539 = experiment: Growth inhibition of human SF539 cells after 48 hrs by SRB assay; format: functional; settings: SF-539, 48 h
# [1] = Cytotoxicity against human Raji cells assessed as cell viability at 10^-8 M relative to control; format: cell-based; settings: read-out: Activity
# [2] = Growth inhibition of human HBC4 cells after 48 hrs by SRB assay; format: functional; settings: HBC4, 48 h
# St-4 = experiment: Growth inhibition of human St-4 cells after 48 hrs by SRB assay; format: functional; settings: St-4, 48 h
# MKN-28 = experiment: Growth inhibition of human MKN28 cells after 48 hrs by SRB assay; format: functional; settings: MKN-28, 48 h
# OVCAR-3 = experiment: Growth inhibition of human OVCAR3 cells after 48 hrs by SRB assay; format: functional; settings: OVCAR-3, 48 h
# DMS-114 = experiment: Growth inhibition of human DMS114 cells after 48 hrs by SRB assay; format: functional; settings: DMS-114, 48 h
# [3] = Growth inhibition of human MKN1 cells after 48 hrs by SRB assay; format: functional; settings: MKN-1, 48 h
# KM12 = experiment: Growth inhibition of human KM12 cells after 48 hrs by SRB assay; format: functional; settings: KM12, 48 h
# [4] = Growth inhibition of human HCC2998 cells after 48 hrs by SRB assay; format: functional; settings: HCC 2998, 48 h
# NCI-H226 = experiment: Growth inhibition of human NCI-H226 cells after 48 hrs by SRB assay; format: functional; settings: NCI-H226, 48 h
# NCI-H23 = experiment: Growth inhibition of human NCI-H23 cells after 48 hrs by SRB assay; format: functional; settings: NCI-H23, 48 h
# [5] = Cytotoxicity against human Raji cells assessed as cell viability at 10^-7 M relative to control; format: cell-based; settings: read-out: Activity
# Raji [6] = experiment: Tumor-promoting activity against human Raji cells expressing EBV-EA at 10^-7 M after 48 hrs by indirect immunofluorescence assay relative to control; format: ADME, cell-based; settings: 0.1 µM
# HT-29 = experiment: Growth inhibition of human HT-29 cells after 48 hrs by SRB assay; format: functional; settings: HT-29, 48 h
# SK-OV-3 = experiment: Growth inhibition of human SKOV3 cells after 48 hrs by SRB assay; format: functional; settings: SK-OV-3, 48 h
# [7] = Growth inhibition of human RXF631L cells after 48 hrs by SRB assay; format: functional; settings: RXF 631, 48 h
# ACHN = experiment: Growth inhibition of human ACHN cells after 48 hrs by SRB assay; format: functional
# LOX IMVI = experiment: Growth inhibition of human LOXIMVI cells after 48 hrs by SRB assay; format: functional
# MDA-MB-231 = experiment: Growth inhibition of human MDA-MB-231 cells after 48 hrs by SRB assay; format: functional; settings: MDA-MB-231, 48 h
# DU-145 = experiment: Growth inhibition of human DU145 cells after 48 hrs by SRB assay; format: functional; settings: DU-145, 48 h
# NCI-H522 = experiment: Growth inhibition of human NCI-H522 cells after 48 hrs by SRB assay; format: functional; settings: NCI-H522, 48 h
# Raji [8] = experiment: Tumor-promoting activity against human Raji cells expressing EBV-EA at 10^-8 M after 48 hrs by indirect immunofluorescence assay relative to control; format: ADME, cell-based; settings: 0.01 µM
# U-251 = experiment: Growth inhibition of human U251 cells after 48 hrs by SRB assay; format: functional; settings: U-251, 48 h
# [9] = Growth inhibition of human BSY1 cells after 48 hrs by SRB assay; format: functional; settings: BSY-1, 48 h
# Mus musculus [10] = experiment: In vivo tumor-promoting activity in DMBA-treated ICR mouse assessed as tumor bearing mouse at 3.4 nmol administered twice per week measured after 20 weeks by two-stage carcinogenesis assay relative to control; format: ADME, organism-based; settings: 3360 h
# SF-295 = experiment: Growth inhibition of human SF295 cells after 48 hrs by SRB assay; format: functional; settings: SF-295, 48 h
# SNB-75 = experiment: Growth inhibition of human SNB75 cells after 48 hrs by SRB assay; format: functional; settings: SNB-75, 48 h
# MKN-45 = experiment: Growth inhibition of human MKN45 cells after 48 hrs by SRB assay; format: functional; settings: MKN-45, 48 h
# A549 = experiment: Growth inhibition of human A549 cells after 48 hrs by SRB assay; format: functional; settings: A549, 48 h
# DMS-273 = experiment: Growth inhibition of human DMS273 cells after 48 hrs by SRB assay; format: functional; settings: DMS-273, 48 h
# OVCAR-4 = experiment: Growth inhibition of human OVCAR4 cells after 48 hrs by SRB assay; format: functional; settings: OVCAR-4, 48 h
# [11] = Cytotoxicity against human Raji cells assessed as cell viability at 10^-6 M relative to control; format: cell-based; settings: read-out: Activity
# MCF7 = experiment: Growth inhibition of human MCF7 cells after 48 hrs by SRB assay; format: functional; settings: MCF7, 48 h
# HCT-15 = experiment: Growth inhibition of human HCT15 cells after 48 hrs by SRB assay; format: functional; settings: HCT-15, 48 h
# NCI-H460 = experiment: Growth inhibition of human NCI-H460 cells after 48 hrs by SRB assay; format: functional; settings: NCI-H460, 48 h
# MKN-7 = experiment: Growth inhibition of human MKN7 cells after 48 hrs by SRB assay; format: functional; settings: MKN-7, 48 h
# SF-268 = experiment: Growth inhibition of human SF268 cells after 48 hrs by SRB assay; format: functional; settings: SF-268, 48 h
# MKN-74 = experiment: Growth inhibition of human MKN74 cells after 48 hrs by SRB assay; format: functional; settings: MKN-74, 48 h
# [12] = Growth inhibition of human HBC5 cells after 48 hrs by SRB assay; format: functional; settings: HBC5, 48 h
# OVCAR-8 = experiment: Growth inhibition of human OVCAR8 cells after 48 hrs by SRB assay; format: functional; settings: OVCAR-8, 48 h
# Raji [13] = experiment: Tumor-promoting activity against human Raji cells expressing EBV-EA at 10^-6 M after 48 hrs by indirect immunofluorescence assay relative to control; format: ADME, cell-based; settings: 1 µM
# Mus musculus [14] = experiment: In vivo tumor-promoting activity in DMBA-treated ICR mouse assessed as increase in number of papillomas at 1.7 nmol administered twice per week measured at 13 to 20 weeks by two-stage carcinogenesis assay; format: ADME, organism-based
# Mus musculus [15] = experiment: In vivo tumor-promoting activity in DMBA-treated ICR mouse assessed as tumor bearing mouse at 1.7 nmol administered twice per week measured after 20 weeks by two-stage carcinogenesis assay relative to control; format: ADME, organism-based; settings: 3360 h
# Mus musculus [16] = experiment: In vivo tumor-promoting activity in DMBA-treated ICR mouse assessed as increase in number of papillomas at 3.4 nmol administered twice per week measured at 11 to 20 weeks by two-stage carcinogenesis assay; format: ADME, organism-based
# [17] = biological target: Protein kinase C alpha type (Homo sapiens, UniProt P17252); experiment: Displacement of [3H]PDBu from PKCalpha C1A domain (unknown origin)
# [18] = biological target: Protein kinase C gamma type (Homo sapiens, UniProt P05129); experiment: Displacement of [3H]PDBu from PKCgamma C1A domain (unknown origin)
# [19] = biological target: Protein kinase C beta type (Homo sapiens, UniProt P05771); experiment: Displacement of [3H]PDBu from PKCbeta C1A domain (unknown origin)
# Chain of Protein kinase C beta type (P05771 whole entry, the tested form may be a part): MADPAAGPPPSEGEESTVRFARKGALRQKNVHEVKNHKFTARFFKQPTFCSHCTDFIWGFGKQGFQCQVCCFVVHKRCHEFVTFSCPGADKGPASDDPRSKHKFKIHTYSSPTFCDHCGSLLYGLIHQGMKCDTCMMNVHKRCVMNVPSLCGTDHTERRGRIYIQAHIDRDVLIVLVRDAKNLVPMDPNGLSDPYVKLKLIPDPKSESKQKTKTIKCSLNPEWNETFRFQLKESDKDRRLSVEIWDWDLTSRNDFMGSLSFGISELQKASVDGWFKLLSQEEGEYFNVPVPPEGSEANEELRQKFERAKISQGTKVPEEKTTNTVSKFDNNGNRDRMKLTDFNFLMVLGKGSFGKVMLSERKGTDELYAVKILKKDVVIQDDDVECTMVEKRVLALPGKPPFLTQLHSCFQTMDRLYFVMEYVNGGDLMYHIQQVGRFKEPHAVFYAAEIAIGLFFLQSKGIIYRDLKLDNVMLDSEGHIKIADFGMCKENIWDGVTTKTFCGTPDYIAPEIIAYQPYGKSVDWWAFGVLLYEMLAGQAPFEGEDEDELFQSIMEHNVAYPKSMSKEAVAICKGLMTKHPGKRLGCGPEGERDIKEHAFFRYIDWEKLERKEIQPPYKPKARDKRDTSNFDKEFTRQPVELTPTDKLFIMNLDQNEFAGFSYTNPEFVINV
# [20] = biological target: Protein kinase C eta type (Homo sapiens, UniProt P24723); experiment: Displacement of [3H]PDBu from PKCeta C1B domain (unknown origin)
# Chain of Protein kinase C eta type (P24723 whole entry, the tested form may be a part): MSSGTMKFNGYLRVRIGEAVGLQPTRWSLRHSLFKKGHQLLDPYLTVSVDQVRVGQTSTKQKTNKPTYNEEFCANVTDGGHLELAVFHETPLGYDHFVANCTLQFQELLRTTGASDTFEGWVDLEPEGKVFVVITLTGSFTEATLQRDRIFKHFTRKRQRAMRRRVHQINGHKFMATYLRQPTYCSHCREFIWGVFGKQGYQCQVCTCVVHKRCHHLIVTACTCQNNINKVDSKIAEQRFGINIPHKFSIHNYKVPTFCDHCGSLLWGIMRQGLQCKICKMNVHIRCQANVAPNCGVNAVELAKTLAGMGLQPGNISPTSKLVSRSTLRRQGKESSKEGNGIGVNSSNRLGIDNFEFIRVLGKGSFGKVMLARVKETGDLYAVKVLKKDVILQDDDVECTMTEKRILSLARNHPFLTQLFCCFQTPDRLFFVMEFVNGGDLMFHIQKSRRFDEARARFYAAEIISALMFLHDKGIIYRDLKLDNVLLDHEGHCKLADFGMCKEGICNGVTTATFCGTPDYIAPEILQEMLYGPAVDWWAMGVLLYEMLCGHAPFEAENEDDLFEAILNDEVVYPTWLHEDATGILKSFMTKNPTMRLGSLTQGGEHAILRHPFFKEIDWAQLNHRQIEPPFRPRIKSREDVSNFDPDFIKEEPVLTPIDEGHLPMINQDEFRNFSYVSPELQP
# [21] = biological target: Protein kinase C delta type (Homo sapiens, UniProt Q05655); experiment: Displacement of [3H]PDBu from PKCdelta C1B domain (unknown origin)
# Chain of Protein kinase C delta type (Q05655 whole entry, the tested form may be a part): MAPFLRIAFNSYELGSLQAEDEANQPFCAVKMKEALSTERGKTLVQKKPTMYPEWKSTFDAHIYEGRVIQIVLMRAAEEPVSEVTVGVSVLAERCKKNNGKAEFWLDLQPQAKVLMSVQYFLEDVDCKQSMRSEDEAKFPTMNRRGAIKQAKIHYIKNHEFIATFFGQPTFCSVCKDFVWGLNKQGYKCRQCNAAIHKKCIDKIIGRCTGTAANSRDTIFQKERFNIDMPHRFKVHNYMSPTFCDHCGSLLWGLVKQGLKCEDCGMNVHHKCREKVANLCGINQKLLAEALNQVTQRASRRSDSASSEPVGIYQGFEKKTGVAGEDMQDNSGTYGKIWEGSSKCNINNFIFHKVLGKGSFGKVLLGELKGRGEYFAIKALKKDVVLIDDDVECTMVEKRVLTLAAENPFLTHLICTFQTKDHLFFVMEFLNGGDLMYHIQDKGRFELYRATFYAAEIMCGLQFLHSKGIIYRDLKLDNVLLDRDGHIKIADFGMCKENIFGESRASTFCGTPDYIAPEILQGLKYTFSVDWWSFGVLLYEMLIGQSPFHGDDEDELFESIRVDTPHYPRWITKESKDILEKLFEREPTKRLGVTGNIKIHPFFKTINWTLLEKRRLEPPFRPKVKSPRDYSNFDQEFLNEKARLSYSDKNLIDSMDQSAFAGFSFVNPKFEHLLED
# [22] = biological target: Protein kinase C epsilon type (Homo sapiens, UniProt Q02156); experiment: Displacement of [3H]PDBu from PKCepsilon C1B domain (unknown origin)
# Chain of Protein kinase C epsilon type (Q02156 whole entry, the tested form may be a part): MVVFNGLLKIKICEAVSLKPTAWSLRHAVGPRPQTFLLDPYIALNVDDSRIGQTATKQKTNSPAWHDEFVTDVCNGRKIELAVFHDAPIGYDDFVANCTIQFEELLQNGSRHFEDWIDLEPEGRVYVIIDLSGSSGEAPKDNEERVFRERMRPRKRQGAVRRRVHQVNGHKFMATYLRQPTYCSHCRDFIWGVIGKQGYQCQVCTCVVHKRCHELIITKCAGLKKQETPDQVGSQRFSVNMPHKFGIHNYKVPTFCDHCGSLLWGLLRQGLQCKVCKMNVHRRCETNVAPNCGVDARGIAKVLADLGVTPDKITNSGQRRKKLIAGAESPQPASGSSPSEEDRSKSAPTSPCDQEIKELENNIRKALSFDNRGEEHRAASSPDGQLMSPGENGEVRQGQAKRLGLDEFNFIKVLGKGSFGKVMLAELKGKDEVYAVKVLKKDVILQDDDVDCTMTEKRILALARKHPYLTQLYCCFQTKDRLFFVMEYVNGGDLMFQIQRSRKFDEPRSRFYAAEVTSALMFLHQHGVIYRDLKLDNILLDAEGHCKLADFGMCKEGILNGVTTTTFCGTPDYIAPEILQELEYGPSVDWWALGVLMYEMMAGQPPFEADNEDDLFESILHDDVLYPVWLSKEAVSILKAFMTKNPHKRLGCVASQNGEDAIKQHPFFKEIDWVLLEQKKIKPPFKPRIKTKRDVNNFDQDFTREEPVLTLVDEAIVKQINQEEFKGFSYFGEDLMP
# [23] = biological target: Protein kinase C theta type (Homo sapiens, UniProt Q04759); experiment: Displacement of [3H]PDBu from PKCtheta C1B domain (unknown origin)
# Chain of Protein kinase C theta type (Q04759 whole entry, the tested form may be a part): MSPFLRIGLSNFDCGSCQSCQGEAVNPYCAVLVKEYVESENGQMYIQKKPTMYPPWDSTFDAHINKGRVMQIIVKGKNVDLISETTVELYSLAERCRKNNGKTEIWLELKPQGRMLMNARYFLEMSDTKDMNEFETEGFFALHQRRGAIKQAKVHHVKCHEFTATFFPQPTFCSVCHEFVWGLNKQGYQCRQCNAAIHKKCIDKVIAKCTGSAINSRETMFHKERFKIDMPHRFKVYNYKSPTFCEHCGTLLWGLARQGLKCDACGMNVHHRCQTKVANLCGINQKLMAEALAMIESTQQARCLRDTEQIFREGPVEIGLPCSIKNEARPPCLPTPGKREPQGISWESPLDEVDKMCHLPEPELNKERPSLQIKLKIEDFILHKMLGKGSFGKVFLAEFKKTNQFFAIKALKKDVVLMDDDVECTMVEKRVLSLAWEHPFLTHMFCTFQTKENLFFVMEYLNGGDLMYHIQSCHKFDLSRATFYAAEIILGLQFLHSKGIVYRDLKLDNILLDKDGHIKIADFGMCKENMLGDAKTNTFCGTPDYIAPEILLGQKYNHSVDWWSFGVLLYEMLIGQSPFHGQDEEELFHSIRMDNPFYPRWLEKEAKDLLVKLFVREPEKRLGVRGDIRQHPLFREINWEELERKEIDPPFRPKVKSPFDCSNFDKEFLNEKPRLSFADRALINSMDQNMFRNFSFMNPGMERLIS
smiles,measurement,setting,value
CC1=C2CC(=O)O[C@@H]([C@@H](C)O)CC(=O)O[C@H]3C[C@@](O2)(O[C@H]([C@@H](C)CCCc2cccc(O)c2)[C@H]3C)C(C)(C)C1,GI50,SNB-78,15.5 µM
same,GI50,OVCAR-5,4.17 µM
same,GI50,HCT-116,5.62 µM
same,GI50,PC-3,3.72 µM
same,GI50,SF-539,11.2 µM
same,viability at 0.01 µM,[1],60%
same,GI50,[2],0.55 µM
same,GI50,St-4,0.741 µM
same,GI50,MKN-28,4.68 µM
same,GI50,OVCAR-3,8.51 µM
same,GI50,DMS-114,4.47 µM
same,GI50,[3],8.13 µM
same,GI50,KM12,4.17 µM
same,GI50,[4],1.86 µM
same,GI50,NCI-H226,10.7 µM
same,GI50,NCI-H23,7.94 µM
same,viability at 0.1 µM,[5],60%
same,Activity,Raji [6],14.1%
same,GI50,HT-29,4.47 µM
same,GI50,SK-OV-3,15.5 µM
same,GI50,[7],11 µM
same,GI50,ACHN,5.5 µM
same,GI50,LOX IMVI,0.832 µM
same,GI50,MDA-MB-231,1.07 µM
same,GI50,DU-145,7.94 µM
same,GI50,NCI-H522,5.5 µM
same,Activity,Raji [8],11%
same,GI50,U-251,4.57 µM
same,GI50,[9],4.07 µM
same,Activity,Mus musculus [10],Not Active
same,GI50,SF-295,3.24 µM
same,GI50,SNB-75,9.77 µM
same,GI50,MKN-45,1.82 µM
same,GI50,A549,2.09 µM
same,GI50,DMS-273,4.37 µM
same,GI50,OVCAR-4,6.61 µM
same,viability at 1 µM,[11],60%
same,GI50,MCF7,4.37 µM
same,GI50,HCT-15,6.76 µM
same,GI50,NCI-H460,0.871 µM
same,GI50,MKN-7,4.07 µM
same,GI50,SF-268,10.2 µM
same,GI50,MKN-74,6.17 µM
same,GI50,[12],11.7 µM
same,GI50,OVCAR-8,12.6 µM
same,Activity,Raji [13],16.2%
CO[C@@H](CC[C@H](C)[C@H]1O[C@@]23C[C@H](OC(=O)C[C@H]([C@@H](C)O)OC(=O)C[C@](O)(O2)[C@H](C)CC3(C)C)[C@@H]1C)c1cccc(O)c1 [DEBROMOAPLYSIATOXIN],Activity,Mus musculus [14],Toxic
same,Activity,Mus musculus [15],80%
same,viability at 0.01 µM,[1],60%
same,viability at 0.1 µM,[5],50%
same,Activity,Raji [6],22.9%
same,Activity,Mus musculus [16],Toxic
same,Activity,Raji [8],21.1%
same,Activity,Mus musculus [10],90%
same,viability at 1 µM,[11],50%
same,Activity,Raji [13],24.4%
C[C@@H]1[C@@H]([C@@H](C)CCCc2cccc(O)c2)O[C@@]23C[C@@H]1OC(=O)C[C@H]([C@@H](C)O)OC(=O)C[C@](O)(O2)[C@H](C)CC3(C)C [DEMETHOXYDEBROMOAPLYSIATOXIN],GI50,SNB-78,6.46 µM
same,GI50,OVCAR-5,4.9 µM
same,GI50,HCT-116,8.71 µM
same,Activity,Mus musculus [14],Toxic
same,GI50,PC-3,4.57 µM
same,Activity,Mus musculus [15],70%
same,GI50,SF-539,11.5 µM
same,Ki,[17],0.001 µM
same,viability at 0.01 µM,[1],60%
same,GI50,[2],< 0.01 µM
same,GI50,St-4,0.0129 µM
same,GI50,MKN-28,6.76 µM
same,GI50,OVCAR-3,8.13 µM
same,GI50,DMS-114,5.5 µM
same,Ki,[18],0.00069 µM
same,GI50,[3],5.5 µM
same,GI50,KM12,3.47 µM
same,GI50,[4],0.0692 µM
same,GI50,NCI-H226,0.0525 µM
same,Ki,[19],0.0015 µM
same,Ki,[20],0.00018 µM
same,GI50,NCI-H23,6.17 µM
same,Ki,[21],0.00032 µM
same,viability at 0.1 µM,[5],50%
same,Activity,Raji [6],17.9%
same,GI50,HT-29,12.3 µM
same,GI50,SK-OV-3,7.24 µM
same,GI50,[7],15.1 µM
same,GI50,ACHN,2.51 µM
same,Activity,Mus musculus [16],Toxic
same,GI50,LOX IMVI,1.62 µM
same,GI50,MDA-MB-231,0.049 µM
same,GI50,DU-145,10.7 µM
same,GI50,NCI-H522,4.79 µM
same,Ki,[22],0.0013 µM
same,Activity,Raji [8],14.3%
same,GI50,U-251,7.24 µM
same,GI50,[9],6.17 µM
same,Activity,Mus musculus [10],90%
same,GI50,SF-295,2.95 µM
same,GI50,SNB-75,10.2 µM
same,GI50,MKN-45,6.76 µM
same,GI50,A549,0.145 µM
same,GI50,DMS-273,3.47 µM
same,GI50,OVCAR-4,7.24 µM
same,viability at 1 µM,[11],50%
same,GI50,MCF7,5.62 µM
same,GI50,HCT-15,9.77 µM
same,GI50,NCI-H460,0.01 µM
same,GI50,MKN-7,2.75 µM
same,GI50,SF-268,13.2 µM
same,GI50,MKN-74,6.92 µM
same,GI50,[12],11.2 µM
same,GI50,OVCAR-8,14.8 µM
same,Activity,Raji [13],18.6%
same,Ki,[23],0.0002 µM
